Assays:
[1] = test system: Human prostate cancer LNCaP-FGC cells; assay: In vivo pharmacodynamic study on subcutaneous xenograft tumor model of human prostate cancer LNCaP-FGC cells; design: species or system CB-17 SCID mice; settings: 50 mg/kg PO QD, after 21 days of administration, vs solvent control
Protocol: 2.1 Experimental Animals • Species: Mice • Strain: CB-17 SCID mice • Week age and body weight: 6-8 weeks old, 18-22 g body weight • Gender: male • Supplier: Beijing Vital River Laboratory Animal Technology Co., Ltd • Animal Certificate No.: 11400700184227 3. Experimental Method and Steps 3.1 Cell Culture
Human prostate cancer LNCaP-FGC cells (ATCC, Manassas, Virginia) were cultured in vitro monolayers under the culture conditions of RPM11640 medium supplemented with […] fetal bovine serum at 37° C. with 5% CO2. Routine digestion treatment with trypsin-EDTA was performed twice a week for passage. When the cell saturation was 80%-90%, the cells were collected, counted, and inoculated.
0.2 mL (10×10^6) of LNCaP-FGC cells (10×10^6+Matrigel, 1:1) was inoculated subcutaneously to the right back of each CB-17 SCID mouse. When the average tumor volume reached 100-150 mm^3, administration in groups was started.
The tumor diameters were measured with a vernier caliper twice a week. The calculation formula of the tumor volume is: V=0.5a×b^2, wherein a and b represent the long diameter and the short diameter of the tumor, respectively. The antitumor efficacy of the compounds were evaluated by TGI (%) or a relative tumor proliferation rate T/C (%). TGI(%)=[(1−(average tumor volume of a treatment group at the end of drug administration−average tumor volume of the treatment group at the beginning of drug administration))/(average tumor volume of the vehicle control group at the end of treatment−average tumor volume of the vehicle control group at the beginning of treatment)]×100%. The calculation formula of the relative tumor proliferation rate T/C (%) is as follows: T/C %=TRTV/CRTV×100% (TRTV: RTV of a treatment group; CRTV: RTV of a negative control group). The relative tumor volume (RTV) is calculated based on the tumor measurement results, and the calculation formula is RTV=Vt/V0, wherein V0 is the average tumor volume measured at the time of administration in groups (i.e., do), Vt is the average tumor volume at one measurement, and TRTV and CRTV are the data obtained on the same day.
The statistical analysis includes mean and standard error of mean (SEM) of the tumor volume at each time point for each group. […] The comparison between two groups was analyzed by T-test, and the comparison between three or more groups was analyzed by one-way ANOVA. If there was a significant difference in the F value, the Games-Howell method was used for testing. If there was no significant difference in the F value, the Dunnet (2-sided) method was used for analysis. All data analysis was performed by using SPSS 17.0. “p<0.05” was considered a significant difference.

[2] = Tissue distribution test of Compound 27 and Compound 10 (plasma and brain); type: in vivo; settings: intragastric 2 mg/kg, 2 h after administration, male CD-1 mice
Protocol: Taking male CD-1 mice as test animals, drug concentrations in plasma and brain after intragastric administration of Compound 27 and Compound 10 to the mice were determined by the LC/MS/MS method, respectively.
2.2 Test Animals: Six healthy adult male CD-1 mice were divided into 2 groups, with 3 mice in each group, according to the principle of similar body weight. The animals were purchased from Shanghai Super-BK Laboratory Animal Co., Ltd., with Animal Production License No.: SCXK (Shanghai) 2013-0016.
An appropriate amount of sample was weighed, and an appropriate amount of DMSO, PEG400 and water were added successively at a volume ratio of 10:40:50. After stirring and ultrasonic processing, the resulting mixture reached a clear solution state of 0.4 mg/mL.
Six male CD-1 mice were divided into 2 groups, fasted overnight, and intragastrically administered at an administration volume of 5 mL/kg in a dose of 2 mg/kg.
After Compound 27 and Compound 10 were intragastrically administered to the male CD-1 mice, 100 μL of blood was collected by cardiac puncture at 2 h, placed in a test tube containing 2 μl of EDTA-K2, and centrifuged at 3000 g for 15 min to separate 50 μL of plasma, which was stored at −60° C. Meanwhile, brain tissues were collected, washed, then homogenized with 5-fold 15 mM PBS/MeOH (v:v, 2:1), and stored at −60° C. The animals were allowed to eat 2 hours after administration.
After intragastric administration to the mice, the content of the test compound in plasma and brain was determined by the LC/MS/MS method. The linear range of the method was 2.00-6000 nmol/L; and the plasma samples were analyzed after the treatment with acetonitrile precipitated protein.

androgen receptor (AR) = target: T1, androgen receptor (AR) (Homo sapiens, UniProt P10275); assay: Antagonism of compounds on nuclear translocation of androgen receptor (PathHunter NHR cell lines); type: cell-based; settings: antagonist mode, agonist 6a-Fluorotestosterone 0.06 μM (EC80)
T1 sequence (P10275 1-920): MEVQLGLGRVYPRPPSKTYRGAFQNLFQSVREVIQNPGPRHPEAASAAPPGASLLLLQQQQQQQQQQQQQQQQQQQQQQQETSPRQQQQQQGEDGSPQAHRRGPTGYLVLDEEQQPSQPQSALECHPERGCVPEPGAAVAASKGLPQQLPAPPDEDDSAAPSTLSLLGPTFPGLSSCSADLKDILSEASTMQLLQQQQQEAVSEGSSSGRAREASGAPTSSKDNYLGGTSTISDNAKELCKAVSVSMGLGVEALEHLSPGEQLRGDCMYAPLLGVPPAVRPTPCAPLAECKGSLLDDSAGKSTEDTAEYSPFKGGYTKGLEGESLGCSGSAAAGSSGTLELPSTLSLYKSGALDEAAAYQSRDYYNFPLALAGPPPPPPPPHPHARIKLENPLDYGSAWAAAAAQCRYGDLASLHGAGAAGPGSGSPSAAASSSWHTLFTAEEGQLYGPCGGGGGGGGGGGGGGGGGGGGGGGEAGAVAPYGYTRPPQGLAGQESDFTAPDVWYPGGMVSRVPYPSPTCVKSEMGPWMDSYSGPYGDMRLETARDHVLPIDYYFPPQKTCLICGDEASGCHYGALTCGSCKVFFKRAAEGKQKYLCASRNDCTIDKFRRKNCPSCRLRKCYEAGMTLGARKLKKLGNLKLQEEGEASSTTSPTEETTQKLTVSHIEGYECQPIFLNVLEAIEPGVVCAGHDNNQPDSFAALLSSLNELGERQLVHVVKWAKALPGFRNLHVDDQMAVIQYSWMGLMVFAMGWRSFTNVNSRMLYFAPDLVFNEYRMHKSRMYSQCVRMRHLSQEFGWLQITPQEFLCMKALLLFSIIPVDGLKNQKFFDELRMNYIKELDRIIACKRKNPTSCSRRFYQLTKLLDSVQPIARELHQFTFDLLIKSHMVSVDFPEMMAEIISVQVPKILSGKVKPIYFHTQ
Protocol: Example 75 Test of Antagonism of Compounds on Nuclear Translocation of Androgen Receptor (AR)
1. PathHunter NHR cell lines were recovered and cultured for amplification.
2. The cells were inoculated onto a 384-well plate prior to testing, and incubated at 37° C. The serum for culture was filtered with charcoal-dextran to reduce the hormone level therein.
3. In the detection of the antagonistic function, a compound was added to the cells and incubated for 60 min. The working concentration of the test compound was diluted from 10 μM at a 3-fold concentration gradient, respectively including: […]. Then, an agonist 6a-Fluorotestosterone 0.06 μM (concentration: EC80, i.e., 80% agonistic compound concentration) was added, and the mixture was incubated at 37° C. or at room temperature for 3-16 h.
4. Signal detection: 12.5 μL or 15 μL (50%, v/v) PathHunter detection mixed solution (kit: DiscoverX product catalog number: 93-0001 series) was added, and incubated at room temperature for 1 h. The chemiluminescent signal was read with a PerkinElmer Envision™ instrument.
5. Data analysis: The compound activity was analyzed with CBIS data analysis software (ChemInnovation, CA). The calculation formula of the inhibition percent of the antagonist is as follows: IC50 inhibition ratio (%)=[…]×(1−(average RLU value of the test compound−average RLU value of the blank control group)/(average RLU value of EC80 control group−average RLU value of the blank control group)).

For `CCc1nc(OCCO)c2cc(N3C(=S)N(c4ccc(C#N)c(C(F)(F)F)c4)C(=O)C3(C)C)ccc2n1` [Compound 27], the TGI [1] was 51.0%, the “relative tumor proliferation rate T/C” value [1] was 53.1% and the “Concentration in Brain” value [2] was 85.2 ± 21.9 nmol/kg. The Kp at 2 h ([2]; mouse, brain / plasma, oral, read-out: Brain to Blood Ratio) was 0.00917 ± 0.0004, the concentration at 2 h ([2]; mouse, plasma, oral) was 9.25 ± 2.11 µM and the IC50 (androgen receptor (AR)) was 2.21 µM.

Source: US11866433B2, “Diarylthiohydantoin compound as androgen receptor antagonist” (CHIA TAI TIANQING PHARMACEUTICAL GROUP CO., LTD., priority 2017, dated 2024)
